Reference: patent US11111217B2, “2-arylbenzimidazoles as Ppargc1a activators for treating neurodegenerative diseases” (The Board of Trustees of the Leland Stanford Junior …, priority 2018, dated 2021)
Where “and” joins values, the source holds several entries; their conditions need not be identical. Equal values may be shown once.

Legend:
[1] = tested on: Caco-2 cells; assay: Caco-2 permeability assay; details: 10 μM, HBSS pH 7.4, 37° C., 2 h; for Caco2 A → B: without elacridar
Protocol: Caco-2 Permeability Assay Protocol
Caco-2 cells were maintained in DMEM in an atmosphere of 5% CO2. For transport experiments 5×10^5 cells/well of were seeded on polycarbonate filter inserts and allowed to grow and differentiate for 21±4 days before the cell monolayers were used for experiments. Apparent permeability coefficients were determined for A→B and B→A directions with and without the presence of elacridar as a transporter inhibitor. Up to three test items and reference compounds were dissolved in Hank's balanced salt solution at pH 7.4 to yield a final concentration of 10 μM.
The assays were performed in HBSS containing 25 mM HEPES (pH 7.4) at 37° C. Prior to the study, the monolayers were washed in prewarmed HBSS. At the start of the experiments prewarmed HBSS containing the test items was added to the donor side of the monolayer and HBSS without test items was added to the receiver side. Aliquots of the receiver side were taken over the 2 h incubation period; aliquots of the donor side were taken at 0 hand 2 h. Aliquots were diluted with an equal volume of methanol/water with 0.1% formic acid containing the internal standard. The mixture was analyzed by LC-MS/MS. The apparent permeability coefficients (Papp) were calculated using the formula: Papp=(dCrec/dt)/(A×C0,donor)]×106 with dCrev/dt being the change in concentration in the receiver compartment with time, C0,donor the concentration in the donor compartment at time 0, and A the area of the compartment with the cells.

[2] = Caco-2 permeability assay; details: human, Caco-2, pH 7.4, with elacridar (concentration not stated)
[3] = Microsome stability assay, mouse liver microsomes; assay type: in vitro ADME; details: pH 7.4, 1 μM test compound, NADPH 1 mM, 37° C., 0-40 mins, read-out: MLM t1/2
Protocol: (§1) Microsome Stability Assay Protocol
(§2) Human liver microsomes (Corning #452117 lot 38291) or Mouse liver microsomes (Corning #452701, lot #6328004) were separately combined at a final concentration of […] with KxPO4 pH 7.4 (100 mM), MgCl2 (10 mM), and test compound (1 μM) and pre-incubated (10 min, 37° C.). Next, NADPH (1 mM) was added to begin reactions (total volume 100 μL). At various time points (0, 10, 20, and 40 mins), reactions were quenched with Clem stop solution (100 μL, 625 ng/mL) (Cyprotex) in Acetonitrile. Samples were centrifuged at 4000 g for 20 mins, diluted (75 μL into 75 μL 0.1% formic acid in water), and analyzed by LC-MS/MS.

[4] = Microsome stability assay, human liver microsomes; assay type: in vitro ADME; details: pH 7.4, 1 μM test compound, NADPH 1 mM, 37° C., 0-40 mins, read-out: HLM t1/2
Protocol: as §1, §2

[5] = tested on: TNF-α production by BV2 cells or PBMC; assay: Cellular assay to measure TNF-α inhibition (LPS-stimulated, ELISA); assay type: cell-based, murine (BV2) or human (PBMC); details: BV2 cells or PBMC (not specified), LPS 100 ng/ml over 24 hours, relative to DMSO vehicle; compound concentration not stated
Source text: Oxidative metabolism exerts an anti-inflammatory effect on myeloid cell phenotype (O'Neill L A, Front Immunol. 2014) and Ppargc1a can promote this energy metabolic pathway (Spiegelman BM, Novartis Found Symp. 2007). Thus, pharmacological activation of Ppargc1a would be expected to inhibit the inflammatory response of myeloid cells. This phenomenon can be measured in cultures by a TNF-α inhibition assay.
Cellular Assay Protocol to Measure TNF-α Inhibition
The murine myeloid cell line BV2 or human peripheral blood mononuclear cells (PBMC) are cultured in RPMI 1640 media (Cat #11875119, Gibco) supplemented with 10% fetal bovine serum and 1% L-glutamine 1% penicillin. These cells are then stimulated with 100 ng/ml of lipopolysaccharide (LPS, O111:B34, Cat # L2630, Sigma) over 24 hours. LPS stimulation results in the secretion of the inflammatory cytokine TNF-α by BV2 cells or PBMC, which can be quantified by ELISA in culture supernatant samples per manufacturer's protocol (Cat #558273 for BV2 and Cat #558299 for PBMC, BD Biosciences). To determine whether exampl compounds 1-78 inhibit TNF-α production by BV2 cells or PBMC, the cells were cultured in the presence of the compounds at different concentrations, and fold reduction in TNF-α production relative to TNF-α production by the same cells cultured in the presence of dimethylsulfoxide (as vehicle control) was determined.

Row | Compound | Caco2 A → B [1] | Papp A→B at 2 h, 10 μM [2] | half-life at 1 μM [3] | half-life at 1 μM [4] | TNF α Inhibition [5] | Caco2 B → A [1]
1 | COC(=O)n1c(-c2ccc(C(C)(C)C)cc2)nc2ccccc21 [Example 14-P, Methyl 2-(4-(tert-butyl)phenyl)-1H-benzo[d]imidazole-1-carboxylate] | 9.33 nm/s and 6.35 nm/s | 2.51 nm/s | 5.5 min | 25.1 min |  | 
2 | CC(C)(C)c1ccc(-c2nc3cc(N)ccc3[nH]2)cc1 [Example 44, 2-(4-tert-Butylphenyl)-1H-benzo[d]imidazol-5-amine] | 23.6 nm/s | 20.5 nm/s | 20.6 min | 42.5 min | A (A = >80% inh.) | 45.4 nm/s
3 | CC(C)(C)c1cccc(-c2nc3ccccc3[nH]2)c1 [Example 58, 2-(3-tert-Butylphenyl)-1H-benzo[d]imidazole] | 21 nm/s | 8.6 nm/s | 4.7 min | 6.9 min | A (A = >80% inh.) | 30.9 nm/s
4 | CCCC(=O)OCn1c(-c2ccc(C(C)(C)C)cc2)nc2ccccc21 [Example 2-P, (2-(4-(tert-Butyl)phenyl)-1H-benzo[d]imidazol-1-yl)methyl butyrate] | 0.532 nm/s and 1.01 nm/s | 0.282 nm/s |  |  |  | 
5 | CC(C)(C)c1ccc(-c2nc3c(F)c(F)ccc3[nH]2)cc1 [Example 55, 2-(4-tert-Butylphenyl)-4,5-difluoro-1H-benzo[d]imidazole] | 4.27 nm/s | 0.693 nm/s | 21.4 min | 20.6 min | A (A = >80% inh.) | 9.94 nm/s
6 | CC(C)(C)c1ccc(-c2nc3ccccc3n2COP(=O)(O)O)cc1 [Example 10-P, Dihydrogen ((2-(4-(tert-butyl)phenyl)-1H-benzo[d]imidazol-1-yl)methyl) phosphate] | 0.0893, nm/s and 0.0565 nm/s | 0.014 nm/s | 159 min | 159 min |  | 
7 | CC(C)(C)c1ccc(-c2nc3cc(C(N)=O)ccc3[nH]2)cc1 [Example 75, 2-(4-tert-Butylphenyl)-1H-benzo[d]imidazol-5-carboxamide] | 16 nm/s | 13.3 nm/s |  |  | A (A = >80% inh.) | 28.5 nm/s
8 | CC(C)(C)c1ccc(-c2nc3c(F)cccc3[nH]2)cc1 [Example 49, 2-(4-tert-Butylphenyl)-4-fluoro-1H-benzo[d]imidazole] |  |  |  |  | A (A = >80% inh.) | 
9 | CC(C)Oc1ccc(-c2nc3ccccc3[nH]2)cc1 [Example 69, 2-(4-Isopropoxyphenyl)-1H-benzo[d]imidazole] |  |  |  |  | A (A = >80% inh.) | 
10 | CC(C)(C)c1ccc(-c2nc3cnccc3[nH]2)cc1 [Example 2, 2-(4-(tert-Butyl)phenyl)-1H-imidazo[4,5-c]pyridine] | 24.7 nm/s and 22.3 nm/s | 21.5 nm/s |  |  | A (A = >80% inh.) | 57.1 nm/s
11 | Cn1c(-c2ccc(C(C)(C)C)cc2)nc2ccccc21 [Example 6, 2-(4-tert-Butylphenyl)-1-methyl-benzo[d]imidazole] |  |  |  |  | B (B = 50-80% inh.) | 
12 | CC(=O)OCn1c(-c2ccc(C(C)(C)C)cc2)nc2ccccc21 [Example 1-P, (2-(4-(tert-Butyl)phenyl)-1H-benzo[d]imidazol-1-yl)methyl acetate] |  | 1.05 nm/s |  | 10.1 min |  | 
